Experimental findings from patent US7601355B2, “Compositions and methods for altering immune function” (Northwestern University, priority 2005, dated 2009) are described below.

One series concerns DO11.10 T cells. Description: in vitro screen: 3H-thymidine proliferation of DO11.10 T cells co-cultured with OVA323-339-pulsed dendritic cells (non-specific toxicity screen). Type of series: cell-based, mice. Particulars: 5 mM and 0.1 μM; 16:1 and 64:1 ratio T:DC co-cultures. The method, then:
The initial biological screen for the selected small molecule compounds was based in functional characteristics of enhancement of Th1 function and secretion of Th1 cytokines (e.g., Interferon-γ (IFN-γ)). In this process, dendritic cells (DC) were obtained by GM-CSF stimulation of bone marrow stem cells for 6 days, pulsed for 18 hours with OVA323-339 peptide to load specific antigen on these antigen presenting cells and then purified using CD11c magnetic bead separation. This population of cells is routinely >98% CD11c positive, as determined by flow cytometry. Transgenic T cells with specificity for the ovalbumin 323-339 epitope (OVA323-339) were obtained from naïve spleens of DO11.10 transgenic mice. The splenic cells were harvested and magnetic beads used to isolate the CD4 T cell population. This latter population of cells is routinely >95% CD4^+. The cells were then co-cultured in round-bottomed 96 well tissue culture plates, at varying ratios, maintaining 2×10^5 CD4^+ T cells in each well, and varying the number of dendritic cells added (See FIG. 2). […]
An initial screen was carried out with 18 compounds, using the in vitro screening process established in Example 2, above. Initially, all 18 compounds were evaluated for toxicity at 5 mM and 0.1 μM, by evaluation of proliferation of 16:1 and 64:1 ratio T:DC co-cultures. […]

For series [1], the system named is co-cultures of DC-T cells. Description: in vitro screen: IFN-γ secretion in DO11.10 T cell / OVA323-339-peptide loaded dendritic cell co-cultures. Format: cell-based, mice. As to conditions: for IFN-γ enhancement at the highest concentration: 64:1 ratio, 1000 ng/ml; for IFN-γ secretion compared to control samples: initial screen, 16:1 and 64:1 T:DC co-cultures. How it is done:
The initial biological screen for the selected small molecule compounds was based in functional characteristics of enhancement of Th1 function and secretion of Th1 cytokines (e.g., Interferon-γ (IFN-γ)). In this process, dendritic cells (DC) were obtained by GM-CSF stimulation of bone marrow stem cells for 6 days, pulsed for 18 hours with OVA323-339 peptide to load specific antigen on these antigen presenting cells and then purified using CD11c magnetic bead separation. This population of cells is routinely >98% CD11c positive, as determined by flow cytometry. Transgenic T cells with specificity for the ovalbumin 323-339 epitope (OVA323-339) were obtained from naïve spleens of DO11.10 transgenic mice. The splenic cells were harvested and magnetic beads used to isolate the CD4 T cell population. This latter population of cells is routinely >95% CD4^+. The cells were then co-cultured in round-bottomed 96 well tissue culture plates, at varying ratios, maintaining 2×10^5 CD4^+ T cells in each well, and varying the number of dendritic cells added (See FIG. 2).
The in vitro screen for functional activity was based on two parameters. The first parameter, ^3H-thymidine incorporation measuring proliferation of OVA323-339-peptide-specific DO11.10 T cells cultured in the presence of OVA323-339-peptide pulsed GM-CSF derived dendritic cells, should not be affected by CD154-CD40 interactions, and thus was used as a screen for non-specific toxicity of the compounds to immune cell co-cultures. The second parameter, which is controlled in the DO11.10 T cell —OVA323-339-peptide loaded dendritic cell co-cultures by CD40 ligation, is that of Interferon-γ secretion by the activated T cells.
Thus, it was hypothesized that if it was possible to enhance immune function by stabilization of CD154-CD40 ligand pair interactions through prolonged stability of CD154 homotrimers, then IFN-γ production should be increased by addition of the small molecule compounds.
An initial screen was carried out with 18 compounds, using the in vitro screening process established in Example 2, above. Initially, all 18 compounds were evaluated for toxicity at 5 mM and 0.1 μM, by evaluation of proliferation of 16:1 and 64:1 ratio T:DC co-cultures. Second, expression of IFN-γ was observed and compared to that of control samples. Of the initial 18 small molecule compounds, 5 compounds were eliminated at this early stage because they inhibited T cell proliferation and were toxic to the cells in culture. […] These two compounds, JFPH and JFPB, were selected for further study, as described below.
Small molecules in DMSO vehicle were added at various dilutions to co-cultures of DC-T cells and after four days supernatants characterized for the production of IFNγ. […]

Series [2] has as its system experimental autoimmune encephalomyelitis (EAE). Description: mouse model of experimental autoimmune encephalomyelitis (EAE), PLP139-151 peptide in CFA. Format: in vivo. How it is done:
Experiments were conducted to confirm that the small molecules could stabilize and therefore enhance Th1 effector function in vivo. Efficacy was tested in a mouse model of experimental autoimmune encephalomyelitis (EAE), a model of Multiple Sclerosis (MS) (See, e.g., Karlsson et al., The Journal of Immunology, 2003, 170: 1019-1026).
EAE is dependent upon CD154-CD40 interactions in the central nervous system (CNS). Initial experiments were carried out to determine the effects of these small molecules on clinical disease severity in an optimal process of induction of EAE. The compounds should not modify the severity of clinical disease over that of the vehicle control treated animals, but enhancement and prolonged Th1 responses peripherally may be observed. Second, experiments were conducted to address whether the severity and/or incidence of EAE disease could be enhanced by the small molecule therapy in mice immunized with suboptimal myelin antigenic peptide, such that the small molecules might enhance in vivo functional activity of the antigen specific Th1 cells induced in these mice, that normally would have low incidence and severity of clinical disease.
Mice were immunized with PLP139-151-peptide in CFA and treated on days 9 and 10 with 100 nmol JFPH in olive oil or vehicle alone. Clinical disease was then evaluated. Clinical severity was assessed on a 0 to 5 scale as follows: grade 1, limp tail; grade 2, limp tail and hind limb weakness (waddling gait); grade 3, partial hind limb paralysis; grade 4, complete hind limb paralysis; and grade 5, moribund. The data are plotted as the daily mean clinical score for all animals in a particular treatment group, and mean day of onset for each mouse was determined and plotted (See, FIG. 5(b)) as a box and whisker plot. When optimal EAE induction was carried out using 50 μg doses of PLP139-151 peptide, disease severity was not affected by treatment with 100 nmol JFPH on days 9 and 10 post-immunization. However, the mean day of disease onset was earlier in the JFPH treated mice compared to vehicle controls (p<0.0001) as determined by a Wilcoxon Sign-Rank test.
In experiments where suboptimal induction of EAE was induced with 25 μg doses of PLP139-151 peptide, the incidence of disease was low for vehicle treated mice (60%) compared to that of JFPH treated mice (100%). Briefly, mice were immunized with 25 μg PLP139-151-peptide in CFA and treated on days 0, 1, 8 and 9 with 100 nmol JFPH in olive oil or vehicle of olive oil alone (FIG. 6, treatment days marked by downward triangles). Clinical disease was evaluated and the cumulative mean clinical scores determined by addition of scores cumulatively with each subsequent day of evaluation (FIG. 6, right panel). The average maximum score for vehicle treated mice was 1.2 (due in part to one individual mouse) versus 1.8 for JFPH treated mice, and in both mean day of onset and mean day of peak disease severity, the JFPH treated mice reached these time points an average of 3 days earlier than that of vehicle treated mice.

In series [3] the test system is syngeneic renal cell carcinoma (RCC) cells. Description: sub-cutaneous renal cell carcinoma tumor model. Type of series: in vivo, Balb/c mice. Particulars: various concentrations, i.p. in olive oil 3x/week for 3 weeks from day 3. The method, then:
(§1) In order to evaluate the efficacy of JFPH in a murine tumor model, Balb/c mice were first injected with syngeneic renal cell carcinoma (RCC) cells. The injections were delivered either sub-cutaneously or orthotopically under the kidney capsule (intra-renal). JFPH drug was diluted in olive oil to a desired concentration. Mice were injected with JFPH in olive oil intra-peritoneally 3×/week for a total of 3 weeks, beginning on day 3 post-tumor cell injection. As a vehicle control, mice were administered with only olive oil (no JFPH). For the sub-cutaneous tumor model, primary tumors were measured with calipers 3×/week and the tumor area was calculated. For the intra-renal tumor model, mice were euthanized on day 21 post tumor-cell injection and the lungs were harvested and placed in fixative. The number of lung metastases were then counted under a dissecting microscope.

The test system is the same in series [4]. Description: intra-renal renal cell carcinoma tumor model, lung metastases. Format: in vivo, Balb/c mice. Particulars: 500 nmoles i.p. in olive oil 3x/week for 3 weeks. How it is done:
as §1

Where [5] appears, read: suboptimal EAE induction, 25 μg PLP139-151.
Setting [6] is: suboptimal EAE induction, 25 μg PLP139-151, 100 nmol days 0, 1, 8 and 9.

“Also recorded” adds a separate entry of the source.

For the compound `CCOC(=O)NC(=O)c1cn(CCNc2ncc(C(F)(F)F)cc2Cl)c(=O)[nH]c1=O` [JFPB, ethyl N-[[1-(2-[[3-chloro-5-(trifluoromethyl)-2-pyridinyl]amino]ethyl)-2,4-dioxo-1,2,3,4-tetrahydro-5-pyrimidinyl]carbonyl]carbamate], the T cell proliferation result in the series on DO11.10 T cells is “no effect”. In series [1], the “IFN-γ enhancement at the highest concentration” value was “reduced IFN-γ enhancement” and the “IFN-γ secretion compared to control samples” value was “consistently enhanced IFN-γ secretion”.

For `FC(F)(F)c1cc(N2CCCCCCC2)c2c(Cl)cc(Cl)cc2n1` [JFPH, 4-azocan-1-YL-5,7-dichloro-2-(trifluoromethyl)quinoline], the T cell proliferation result in the series with DO11.10 T cells is “no effect”. Also, in series [1], the “IFN-γ enhancement at the highest concentration” value is “enhancement was observed” and the “IFN-γ secretion compared to control samples” value was “consistently enhanced IFN-γ secretion”. Also, in series [2] (EAE induced under suboptimal conditions), the disease onset result is “accelerated disease onset”. Further, the “mean day of onset” value in series [2] (optimal EAE induction, 50 μg PLP139-151, 100 nmol days 9 and 10, ± standard deviation) was determined as 15.47 ± 1.68 days. In series [2] (optimal EAE induction, 50 μg PLP139-151, 100 nmol in olive oil days 9 and 10), the “disease severity (clinical score 0 to 5)” value is reported as “not affected”. Also, the “disease onset compared to vehicle controls” value in series [2] (optimal EAE induction, 100 nmol days 9 and 10) is reported as “accelerated disease onset; also recorded: earlier”. For the same compound, in series [2] (setting [5]), the “disease course longer than vehicle control” value stood at 3 days; the “mean day of onset, earlier than vehicle treated mice” value is listed as 3 days; the “mean day of peak disease severity, earlier than vehicle treated mice” value was determined as 3 days. In addition, in series [2] (setting [6]), the average maximum score was 1.8 and the incidence of disease is given as 100%. For the same compound, the “mean day of remission versus vehicle” value in series [2] (suboptimal EAE induction, remission = reduction of one full score for two days) is “no difference”. Besides, in series [3], the “sub-cutaneous renal cancer tumor growth (tumor area) versus control mice” value is given as “delays sub-cutaneous growth of renal cancer; also recorded: delayed renal cancer tumor growth”. Besides, the “renal cancer metastasis (number of lung metastases, day 21) versus control mice” value in series [4] is given as “reduces renal cancer metastasis; also recorded: significant reduction of renal cancer metastasis”.
